Reference: US20240397940A1, “COMPOSITIONS COMPRISING A SATURATED OR UNSATURATED ALIPHATIC ACID AND A NON-IONIC SURFACTANT FOR ENHANCING PENETRATION OF PESTICIDE COMPONENT” (TERRAMERA, INC., priority 2021, published 2024)

Legend:
Format in all cases: in vitro ADME
[1] = test system: waxy cuticles of whole wheat leaves; assay: Franz cell leaf penetration of pyraclostrobin, Headline SC (Example 8); conditions: penetration ratio of pyraclostrobin (236 ppm, Headline SC), 5-Hexenoic acid 1,000 ppm and adjuvant 1,000 ppm where included, 24 hours
Method: (§1) This ratio may be expressed based on:
(§2) Several donor solutions were prepared to assess penetration of a strobilurin fungicide active ingredient, namely pyraclostrobin, across waxy cuticles of whole wheat leaves. Each donor solution comprised Headline® SC, a commercially available fungicide from BASF Corporation comprising pyraclostrobin. Such donor solutions comprised 236 ppm pyraclostrobin. Certain donor solutions included an aliphatic acid, namely 5-Hexenoic acid. Such donor solutions comprised 1,000 ppm 5-Hexenoic acid. […] In this example, the adjuvants tested were non-ionic surfactants comprising C11 linear alcohol ethoxylates (available from Stepan Company of Northfield, IL as Biosoft® N1-5, Biosoft® N1-7, and Biosoft® N1-9).
(§3) The permeation period was 24 hours. […] The powderized leaf was mixed with acetone as a solvent.

[2] = test system: waxy cuticles of whole wheat leaves; assay: Franz cell leaf penetration of pyraclostrobin, Headline EC (Example 6); conditions: penetration ratio of pyraclostrobin (236 ppm, Headline EC), 5-Hexenoic acid 1,000 ppm and adjuvant 1,000 ppm where included, 24 hours
Method: as §1
as §2, with “comprised Headline® EC, a commercially” for “comprised Headline® SC, a commercially”, “ppm pyraclostrobin. Pyraclostrobin is also commercially available in end-user product form from BASF Corporation as Headline® SC fungicide. Certain donor” for “ppm pyraclostrobin. Certain donor”, “solutions included 1,000 ppm” for “solutions included an aliphatic acid, namely 5-Hexenoic acid. Such donor solutions comprised 1,000 ppm”
as §3

[3] = test system: waxy cuticles of whole wheat leaves; assay: Franz cell leaf penetration of epoxiconazole (Example 7); conditions: 24 h, 50 ppm
Method: as §1
Several donor solutions were prepared to assess penetration of an azole fungicide, namely epoxiconazole, across waxy cuticles of whole wheat leaves. Epoxiconazole TGAI was provided in each donor solution at a rate of 50 ppm. Epoxiconazole is available from MilliporeSigma, St. Louis, MO, USA, and Shanghai Terppon Chemical Co., Ltd., Shanghai, China as a technical grade active ingredient. Certain donor solutions comprised 500 ppm 3-Nonenoic acid.
as §3

[4] = test system: waxy cuticles of whole soybean leaves; assay: Franz cell leaf penetration of trans-2-Hexenoic acid, Mero (Example 15); conditions: penetration ratio of trans-2-Hexenoic acid (1,500 ppm), azoxystrobin 343.5 ppm (Quadris) and Mero 31.3 ppm where included, 24 hours
Method: as §1
Each donor solution comprised 1,500 ppm trans-2-Hexenoic acid. Certain donor solutions included a strobilurin fungicide, namely azoxystrobin. Such donor solutions comprised Quadris®, a commercially available fungicide from Syngenta Crop Protection comprising azoxystrobin. Such donor solutions comprised 343.5 ppm azoxystrobin.
(§4) The permeation period was 24 hours.

[5] = test system: waxy cuticles of whole soybean leaves; assay: Franz cell leaf penetration of trans-2-Hexenoic acid, Biosoft adjuvants (Example 2); conditions: penetration ratio of trans-2-Hexenoic acid (1,500 ppm), azoxystrobin 343.5 ppm (Quadris) and adjuvant 1,000 ppm where included, 24 hours
Excerpt: as §1
Each donor solution comprised 1,500 ppm trans-2-Hexenoic acid. Certain donor solutions included a strobilurin fungicide, namely azoxystrobin. Such donor solutions comprised Quadris®, a commercially available fungicide from Syngenta Crop Protection comprising azoxystrobin. Such donor solutions comprised 343.5 ppm azoxystrobin. […] In this example, the adjuvants tested were non-ionic surfactants comprising C11 linear alcohol ethoxylates (available from Stepan Company of Northfield, IL as Biosoft® N1-5, Biosoft® N1-7, and Biosoft® N1-9).
as §4

[6] = test system: waxy cuticles of whole soybean leaves; assay: Franz cell leaf penetration of azoxystrobin, Mero (Example 14); conditions: penetration ratio of azoxystrobin (343.5 ppm, Quadris), trans-2-Hexenoic acid 1,500 ppm and Mero 31.3 ppm where included, 24 hours
Method: as §1
Several donor solutions were prepared to assess penetration of a strobilurin fungicide, namely azoxystrobin, across waxy cuticles of whole soybean leaves. Each donor solution comprised Quadris®, a commercially available fungicide from Syngenta Crop Protection comprising azoxystrobin. Such donor solutions comprised 343.5 ppm azoxystrobin. Certain donor solutions included 1,500 ppm trans-2-Hexenoic acid.
as §4

[7] = test system: waxy cuticles of whole wheat leaves; assay: Franz cell leaf penetration of 5-Hexenoic acid (Example 4); conditions: penetration ratio of 5-Hexenoic acid (1,000 ppm), pyraclostrobin 236 ppm (Headline EC) and adjuvant 1,000 ppm where included, 24 hours
Method: as §1
Several donor solutions were prepared to assess penetration of 5-Hexenoic acid across waxy cuticles of whole wheat leaves. Each donor solution comprised 1,000 ppm 5-Hexenoic acid (except where otherwise noted). Certain donor solutions included a strobilurin fungicide, namely pyraclostrobin. Such donor solutions comprised Headline® EC, a commercially available fungicide from BASF Corporation comprising pyraclostrobin. Such donor solutions comprised 236 ppm pyraclostrobin. […] In this example, the adjuvants tested were non-ionic surfactants comprising C11 linear alcohol ethoxylates (available from Stepan Company of Northfield, IL as Biosoft® N1-5, Biosoft® N1-7, and Biosoft® N1-9).
as §3

[8] = test system: waxy cuticles of whole wheat leaves; assay: Franz cell leaf penetration of 3-Nonenoic acid (Example 5); conditions: penetration ratio of 3-Nonenoic acid (500 ppm), epoxiconazole TGAI 50 ppm and adjuvant 1,000 ppm where included, 24 hours
Method: as §1
(§5) Several donor solutions were prepared to assess penetration of 3-Nonenoic acid across waxy cuticles of whole wheat leaves. Each donor solution comprised 500 ppm 3-Nonenoic acid. Certain donor solutions included an azole fungicide, namely epoxiconazole technical grade active ingredient (TGAI) fungicide, each at a rate of 50 ppm. Epoxiconazole is commercially available from MilliporeSigma, St. Louis, MO, USA, as a technical grade active ingredient. […] In this example, the adjuvants tested were non-ionic surfactants comprising C11 linear alcohol ethoxylates (available from Stepan Company of Northfield, IL as Biosoft® N1-5, Biosoft® N1-7, and Biosoft® N1-9).
as §3

[9] = test system: waxy cuticles of whole wheat leaves; assay: Franz cell leaf penetration of 3-Octenoic acid (Example 3); conditions: penetration ratio of 3-Octenoic acid (500 ppm), epoxiconazole TGAI 50 ppm and adjuvant 1,000 ppm where included, 24 hours
Method: as §1
as §5, with “3-Octenoic” for “3-Nonenoic”, “N1-5” for “N1-5, Biosoft® N1-7,”, “Biosoft®) N1-7).” for “Biosoft® N1-9).”
as §3

In the case of COC(=O)N(OC)c1ccccc1COc1ccn(-c2ccc(Cl)cc2)n1 [Pyraclostrobin, pyraclostrobin], the “Pesticidal Active Ingredient Penetration” value [1] was 7.1% and the “Pesticidal Active Ingredient Penetration” value [2] was 7.5%.
In the case of Fc1ccc([C@]2(Cn3cncn3)O[C@H]2c2ccccc2Cl)cc1 (racemic) [Epoxiconazole, epoxiconazole], the “Pesticidal Active Ingredient Penetration” value [3] was 18.2%.
CCC/C=C/C(=O)O [trans-2-hexenoic acid, trans-2-Hexenoic acid] was tested, and the “Aliphatic Acid Penetration” value [4] was 13.2% and the “Aliphatic Acid Penetration” value [5] was 13.2%.
CO/C=C(/C(=O)OC)c1ccccc1Oc1cc(Oc2ccccc2C#N)ncn1 [Azoxystrobin, azoxystrobin] was tested, and the “Pesticidal Active Ingredient Penetration” value [6] was 0.7%.
In the case of C=CCCCC(=O)O [5-Hexenoic acid], the “Aliphatic Acid Penetration” value [7] was 6.8%.
CCCCCC=CCC(=O)O [3-Nonenoic acid] was tested, and the “Aliphatic Acid Penetration” value [8] was 17.6%.
With CCCCC=CCC(=O)O [3-octenoic acid, 3-Octenoic acid] the “Aliphatic Acid Penetration” value [9] was 13.4%.
